According to US12016864B2, “LOX enzyme inhibiting methods and compositions” (ANOVIA BIOSCIENCES, INC., priority 2021, dated 2024):

Columns and labels:
[1] = molecular target: T1, Recombinant human LOXL3 (lysyl oxidase like 3) (Homo sapiens, UniProt P58215); assay: LOXL3 inhibition assay, fluorometric (cadaverine / HRP / Amplex Red); format: biochemical; conditions: recombinant human LOXL3 150 nM; 30 min preincubation at 37° C.; 1 mM cadaverine; read-out: Activity Range LOXL3
T1 construct: purchased R&D systems
T1 sequence (P58215 26-753): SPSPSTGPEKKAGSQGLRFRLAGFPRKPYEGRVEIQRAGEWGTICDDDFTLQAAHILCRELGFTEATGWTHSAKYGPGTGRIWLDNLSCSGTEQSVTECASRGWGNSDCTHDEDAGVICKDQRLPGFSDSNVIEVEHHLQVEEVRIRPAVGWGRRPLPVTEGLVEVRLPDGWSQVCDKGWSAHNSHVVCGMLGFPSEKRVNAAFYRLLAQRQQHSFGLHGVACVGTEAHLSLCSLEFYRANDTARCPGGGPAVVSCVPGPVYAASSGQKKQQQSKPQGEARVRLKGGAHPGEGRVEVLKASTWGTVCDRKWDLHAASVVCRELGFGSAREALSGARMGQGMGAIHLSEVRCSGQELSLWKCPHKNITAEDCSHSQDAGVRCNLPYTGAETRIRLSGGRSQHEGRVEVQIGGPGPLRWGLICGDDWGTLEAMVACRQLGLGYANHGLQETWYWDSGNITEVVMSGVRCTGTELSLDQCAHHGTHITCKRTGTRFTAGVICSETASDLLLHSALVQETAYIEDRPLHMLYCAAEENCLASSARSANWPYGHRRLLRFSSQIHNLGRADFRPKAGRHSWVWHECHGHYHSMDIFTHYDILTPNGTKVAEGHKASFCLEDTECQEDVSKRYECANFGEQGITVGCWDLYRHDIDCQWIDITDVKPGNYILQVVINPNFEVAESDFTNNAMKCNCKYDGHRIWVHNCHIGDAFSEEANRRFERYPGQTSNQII
Description: The ability of compounds to inhibit one or more of the lysyl oxidases LOXL2 and/or LOXL3 was determined using a fluorometric assay. This assay measures the activity of lysyl oxidases by coupling the reaction with horseradish peroxidase-catalyzed […]. The activity assay protocol uses cadaverine as substrate that releases hydrogen peroxide upon transformation by the specific LOX family enzyme present in the sample. Hydrogen peroxide is in turn detected using a red fluorescence substrate for HRP-coupled reactions (Amplex Red Enzyme Assays, Thermo Scientific Fisher). This leads to increase in fluorescence that can be easily detected at Ex/Em=540/590 nm in a fluorescence microplate reader.
Recombinant human LOXL2 (lysyl oxidase like 2) and recombinant human LOXL3 (lysyl oxidase like 3) were purchased from R&D systems and assays were performed in 1.2 M urea, 50 mM sodium borate buffer pH 8.0, and 10 mM CaCl.
5 μl of freshly prepared reaction buffer were delivered to reaction wells. Compounds were resuspended in 100% DMSO at 10 mM and delivered into buffer using acoustic technology (Echo550; nanoliter range). A 3× solution of LOXL2 or LOXL3 in reaction buffer was prepared (“enzyme solution”) and 5 μL of enzyme solution was added into the reaction wells. Buffer only was added to column 1 for no protein control. Reactions were incubated for 30 minutes at 37° C. A 3× mixture of cadaverine, Amplex Red, and HRP (“Substrate/Detection Mix) was prepared and subsequently 5 μL of the mixture added to each reaction well. Progress of reactions was monitored for 60 minutes at 37° C. using Clariostar plate reader (ex 530-12, ems 600-40). For all activity assays, pan-LOX inhibitor CCT365623 (Tang et al, 2017) and LOXL2/LOXL3 inhibitor PAT-1251 (PharmaKea) were included as standards.
For the data analysis, the slope of the linear portion of the progress curve was calculated using Clariostar software. Typical analysis interval was between 8-30 min, but varied between experiments. The background-subtracted signals (No protein wells are considered as background) were converted to % activity relative to DMSO controls. Data was analyzed using GraphPad Prism 4 with “sigmoidal dose-response (variable slope)”; 4 parameters with Hill Slope. Constraints: Bottom=Constant equal to 0. Top=Must be less than 120.

[2] = molecular target: T2, Recombinant human LOXL2 (lysyl oxidase like 2) (Homo sapiens, UniProt Q9Y4K0); assay: LOXL2 inhibition assay, fluorometric (cadaverine / HRP / Amplex Red); format: biochemical; conditions: recombinant human LOXL2 130 nM; 30 min preincubation at 37° C.; 2.5 mM cadaverine; read-out: Activity Range LOXL2
T2 construct: purchased R&D systems
T2 sequence (Q9Y4K0 26-774): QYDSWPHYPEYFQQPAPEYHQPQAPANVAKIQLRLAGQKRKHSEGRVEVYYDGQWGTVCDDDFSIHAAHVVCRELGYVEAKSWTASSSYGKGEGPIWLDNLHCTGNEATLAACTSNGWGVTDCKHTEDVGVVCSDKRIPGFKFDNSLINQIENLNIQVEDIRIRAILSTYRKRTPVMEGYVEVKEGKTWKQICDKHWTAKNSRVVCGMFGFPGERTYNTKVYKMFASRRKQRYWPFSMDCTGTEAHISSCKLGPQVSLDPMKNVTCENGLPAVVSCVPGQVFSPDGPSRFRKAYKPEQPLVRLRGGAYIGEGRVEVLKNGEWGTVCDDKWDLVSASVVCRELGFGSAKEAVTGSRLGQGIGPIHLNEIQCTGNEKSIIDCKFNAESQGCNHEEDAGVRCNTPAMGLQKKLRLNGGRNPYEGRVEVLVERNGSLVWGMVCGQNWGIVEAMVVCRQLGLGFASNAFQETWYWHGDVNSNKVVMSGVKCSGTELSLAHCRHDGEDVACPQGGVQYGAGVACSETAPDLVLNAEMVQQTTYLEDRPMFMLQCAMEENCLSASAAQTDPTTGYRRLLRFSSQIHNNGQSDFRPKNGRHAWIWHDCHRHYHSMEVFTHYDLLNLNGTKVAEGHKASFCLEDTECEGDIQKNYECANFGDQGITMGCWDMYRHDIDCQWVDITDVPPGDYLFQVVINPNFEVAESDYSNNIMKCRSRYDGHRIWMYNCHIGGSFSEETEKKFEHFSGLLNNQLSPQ
Summary of the method: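 Recombinant human LOXL2 or LOXL3 in 1.2 M urea, 50 mM sodium borate pH 8.0, 10 mM CaCl, preincubated with compound 30 min at 37 °C. Cadaverine substrate added; H2O2 detected by HRP/Amplex Red fluorescence, read kinetically for 60 min at 37 °C. Initial-rate slopes, background-subtracted and normalised to DMSO, fitted to a 4-parameter curve with bottom fixed at 0.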

Compound	IC50 [1] [nM]	IC50 [2] [nM]
NCc1ccnc(OC[C@@H]2C[C@H](C3CCCCC3)CN(S(=O)(=O)N3CCS(=O)(=O)CC3)C2)c1 (racemic) [Example 235, cis-4-((3-(((4-(Aminomethyl)pyridin-2-yl)oxy)methyl)-5-cyclohexylpiperidin-1-yl)sulfonyl)thiomorpholine 1,1-dioxide 2,2,2-trifluoroacetate]	500 to 1000	≤ 500
NCc1ccnc(OC[C@@H]2C[C@H](C3CCCCC3)CN2S(=O)(=O)N2CCOCC2)c1 (relative stereo) [Example 239, cis-(2-((4-Cyclohexyl-1-(morpholinosulfonyl)pyrrolidin-2-yl)methoxy)pyridin-4-yl)methanamine 2,2,2-trifluoroacetate]	≤ 500	≤ 500
NCc1ccnc(OC[C@@H]2C[C@@H](C3CCCCC3)CN2S(=O)(=O)N2CCOCC2)c1 [Example 239T, trans-(2-((4-Cyclohexyl-1-(morpholinosulfonyl)pyrrolidin-2-yl)methoxy)pyridin-4-yl)methanamine 2,2,2-trifluoroacetate]	≤ 500	≤ 500
